Test results taken from the CheMixHub ionic liquid set.

Assay: xn = mol fraction of the nth substance listed

CCCC[n+]1ccn(C)c1.F[P-](F)(F)(F)(F)F + CCCC[n+]1ccn(C)c1.F[B-](F)(F)F
101 kPa
Details	viscosity [mPa·s]
298.15 K, x1 = 0.1034	116.1
298.15 K, x1 = 0.833	227
298.15 K, x1 = 0.8877	237
299.15 K, x1 = 0.1034	110.2
299.15 K, x1 = 0.2095	121.3
299.15 K, x1 = 1	259
301.15 K, x1 = 0.0568	91.6
301.15 K, x1 = 0.1034	99.5
301.15 K, x1 = 1	232
302.15 K, x1 = 0.0568	87.1
302.15 K, x1 = 0.3825	118.8
302.15 K, x1 = 0.4647	124.4
303.15 K, x1 = 0.0568	82.9
305.15 K, x1 = 0.6928	136.5
305.15 K, x1 = 0.945	166.1
307.15 K, x1 = 0.3825	92.5
307.15 K, x1 = 0.833	136.1
307.15 K, x1 = 0.945	149.7
308.15 K, x1 = 0.2095	77.4
308.15 K, x1 = 0.3825	88.1
308.15 K, x1 = 0.5385	98.8
308.15 K, x1 = 1	156

CN(C)C=O + CCCC[n+]1ccn(C)c1.F[B-](F)(F)F
Details	viscosity [mPa·s]
298.15 K, 101.33 kPa, x1 = 1	0.8
333.15 K, 100 kPa, x2 = 0	0.559

CN1CCCC1=O + CCCC[n+]1ccn(C)c1.F[B-](F)(F)F
101 kPa, x1 = 1
Details	viscosity [mPa·s]
298.15 K	1.66
303.15 K	1.49
308.15 K	1.39
313.15 K	1.31
323.15 K	1.174

CC(=O)c1ccccc1 + CCCC[n+]1ccn(C)c1.F[P-](F)(F)(F)(F)F
100 kPa
Details	viscosity [mPa·s]
293.15 K, x1 = 0.5999	49.3
303.15 K, x1 = 0.2999	45
313.15 K, x1 = 0.4973	21.6
313.15 K, x1 = 0.5999	16.5
323.15 K, x1 = 0.0913	30.2
323.15 K, x1 = 0.3908	20.1
323.15 K, x1 = 0.697	8
323.15 K, x1 = 0.7999	6
323.15 K, x1 = 0.95	1.89
333.15 K, x1 = 0.0913	20.3
333.15 K, x1 = 0.2999	17.7
333.15 K, x1 = 0.9002	3.48
333.15 K, x1 = 1	1.09

CN(C)C=O + CCCC[n+]1ccn(C)c1.F[P-](F)(F)(F)(F)F
Details	viscosity [mPa·s]
303.15 K, 101 kPa, x1 = 1	0.82

CCCC[n+]1ccn(C)c1.O=S(=O)([N-]S(=O)(=O)C(F)(F)F)C(F)(F)F + CCCC[n+]1ccn(C)c1.N#C[C-](C#N)C#N
100 kPa, x1 = 1
Details	viscosity [mPa·s]
283.15 K	106.8
288.15 K	82.2
293.15 K	64.5
298.15 K	51.6
303.15 K	41.9
308.15 K	34.6
313.15 K	28.9
318.15 K	24.5
323.15 K	20.9
328.15 K	18.05
333.15 K	15.72
338.15 K	13.8
343.15 K	12.2
348.15 K	10.86
353.15 K	9.72
358.15 K	8.75
363.15 K	7.93

CCCCCCO + CCCC[n+]1ccn(C)c1.N#C[S-]
101 kPa, x1 = 1
Details	viscosity [mPa·s]
308.15 K	3.33
338.15 K	1.57

CN1CCCC1=O + CCCC[n+]1ccn(C)c1.N#C[S-]
101 kPa, x2 = 0
Details	viscosity [mPa·s]
288.15 K	2.133
298.15 K	1.791
308.15 K	1.549
318.15 K	1.285

CCCCCCO + CCCC[n+]1ccn(C)c1.O=S(=O)([N-]S(=O)(=O)C(F)(F)F)C(F)(F)F
298 K, 100 kPa
Details	electrical conductivity [S/m]	viscosity [mPa·s]
x2 = 0	–	4.502
x2 = 0.6	0.5605	–
x2 = 0.7	0.491	26.59
x2 = 0.8	0.4635	–
x2 = 0.8006	–	32.43
x2 = 0.899	–	40.3
x2 = 0.9	0.427	–

CCCC[n+]1ccn(C)c1.F[P-](F)(F)(F)(F)F + CCCC[n+]1ccn(C)c1.O=S(=O)([N-]S(=O)(=O)C(F)(F)F)C(F)(F)F
Details	viscosity [mPa·s]
313.15 K, 100 kPa, x1 = 0.5	49.8

CCOC(C)=O + CCCC[n+]1ccn(C)c1.O=S(=O)([N-]S(=O)(=O)C(F)(F)F)C(F)(F)F
298.15 K, 101 kPa
Details	viscosity [mPa·s]
x1 = 0.092	40
x1 = 0.2303	26.5

O=C1CCCCCO1 + CCCC[n+]1ccn(C)c1.O=S(=O)([N-]S(=O)(=O)C(F)(F)F)C(F)(F)F
electrical conductivity [S/m], 100 kPa, frequency 0.01 MHz
Details	293.15 K	298.15 K	303.15 K	308.15 K	313.15 K	318.15 K	323.15 K
x2 = 0.05	0.137	0.15	0.162	0.175	0.188	0.201	0.209
x2 = 0.1002	0.269	0.294	0.319	0.338	0.364	0.393	0.421
x2 = 0.1505	0.378	0.414	0.454	0.485	0.521	0.565	0.605
x2 = 0.1985	0.504	0.548	0.598	0.649	0.706	0.772	0.847
x2 = 0.3001	0.589	0.647	0.715	0.779	0.855	0.943	1.03
x2 = 0.3987	0.567	0.64	0.721	0.803	0.894	0.983	1.08
x2 = 0.4903	0.526	0.594	0.674	0.766	0.856	0.955	1.05
x2 = 0.6309	0.451	0.523	0.607	0.688	0.774	0.872	0.969
x2 = 0.6988	0.418	0.489	0.564	0.645	0.73	0.829	0.928
x2 = 0.8042	0.374	0.441	0.515	0.598	0.689	0.783	0.885
x2 = 0.883	0.356	0.417	0.489	0.573	0.665	0.759	0.862

CCCC[n+]1ccn(C)c1.F[P-](F)(F)(F)(F)F + CCCC[n+]1ccn(C)c1.O=S(=O)([O-])C(F)(F)F
Details	viscosity [mPa·s]
318.15 K, 100 kPa, x1 = 1	87.7

CCOC(C)=O + CCCC[n+]1ccn(C)c1.O=S(=O)([O-])C(F)(F)F
Details	viscosity [mPa·s]
298.15 K, 100 kPa, x2 = 0	0.42

CCCCCCO + CCCC[n+]1ccn(C)c1.O=[N+]([O-])[O-]
100 kPa, x2 = 0
Details	viscosity [mPa·s]
293.15 K	5.37
303.15 K	3.94
313.15 K	2.95
323.15 K	2.26

CC#N + CCCC[n+]1ccn(C)c1.[Cl-]
Details	viscosity [mPa·s]
308.15 K, 101 kPa, x1 = 1	0.31

CN(C)C=O + CCCC[n+]1ccn(C)c1.[Cl-]
Details	viscosity [mPa·s]
288.15 K, 101 kPa, x1 = 1	0.94

CCCC[n+]1ccn(C)c1.O=S(=O)([N-]S(=O)(=O)C(F)(F)F)C(F)(F)F + CCCO
298 K, 100 kPa
Details	electrical conductivity [S/m]	viscosity [mPa·s]
x1 = 0.02	0.137	–
x1 = 0.05	–	2.742
x1 = 0.06	0.348	–
x1 = 0.07	0.3949	–
x1 = 0.1	0.5104	3.685
x1 = 0.1996	–	5.689
x1 = 0.2	0.7444	–
x1 = 0.3	0.8144	–
x1 = 0.3005	–	8.179
x1 = 0.3996	–	11.32
x1 = 0.4	0.804	–
x1 = 0.4995	–	15.01
x1 = 0.5	0.7509	–
x1 = 0.5478	–	17.08
x1 = 0.6	0.686	–
x1 = 0.6957	–	24.54
x1 = 0.7	0.6239	–
x1 = 0.8	0.5324	–
x1 = 0.8024	–	32.15
x1 = 0.9	0.461	–
x1 = 0.9018	–	40.15
x1 = 1	–	49.7

CC#N + CCC[N+]1(C)CCCC1.O=S(=O)([N-]S(=O)(=O)C(F)(F)F)C(F)(F)F
101 kPa, x2 = 0
Details	viscosity [mPa·s]
278.15 K	0.411
288.15 K	0.38
298.15 K	0.346
308.15 K	0.311
318.15 K	0.279
328.15 K	0.248
